From patent publication US20120165403A1, “METHODS OF INHIBITING THE ACTIVITY OF HSP90 AND/OR ARYL HYDROCARBON RECEPTOR” (UNIVERSITY OF ROCHESTER, priority 2004, published 2012)

How the values were obtained:
mouse AhR = experiment: Competitive binding by velocity sedimentation on sucrose density gradients
Experimental: Mouse hepatoma cells, Hepa1c1c7 (Hepa), and BP^rCl cells were maintained in modified Eagle's medium (Sigma) supplemented with 10% heat-inactivated fetal bovine serum, sodium pyruvate, L-glutamine, sodium bicarbonate, and Gentamicin (MEM+), at 37° C. in a humid atmosphere with 5% CO2. BP^rCl cells are a derivative of Hepa1c1c7 cells that lack ARNT protein expression and function (Probst et al., Mol. Pharmacol. 44:511-518 (1993), which is hereby incorporated by reference in its entirety). Upon reaching 90% confluency, cells were harvested and homogenized in HEDG buffer (25 mM HEPES, 1.5 mM Na2EDTA, 1 mM dithiothreitol, 10% (v/v) glycerol, pH 7.6) containing protease inhibitors (Roche Applied Science complete mini cocktail tablet, Indianapolis, Ind.). Both Hepa and BP^rC1 cytosols were prepared by centrifugation of the homogenate at 100,000 g for 45 min.
Competitive binding of EGCG was analyzed by velocity sedimentation on sucrose gradients in a vertical tube rotor (Tsui et al., Can. J. Physiol. Pharmacol 59:927-931 (1981); Jensen et al., Toxicol. Sci. 64:41-56 (2001), which are hereby incorporated by reference in their entirety). Hepa cytosol (100 μl of 2.5 mg/ml) or BP^rCl cytosol was incubated for two hours at room temperature with either 3 nM ^3H-TCDD, 0.5 nM ^3H-TCDD, or 5 nM ^3H-BNF, in the presence of DMSO, 150-fold excess TCDF, 1 μM 3M4NF, or EGCG. Cytosols were washed with charcoal-dextran (1 mg charcoal/mg protein) in HEDG, and applied to a 10-30% (w/v) sucrose gradient in Beckman Quick-Seal centrifuge tubes (Beckman, Palo Alto, Calif.). [Methyl-^14C]-BSA was used as an internal sedimentation marker. The gradients were centrifuged for 2 h at 372,000×g in a Beckman VTI-80 rotor. Fractions were collected from the top at a rate of 1 ml/min, 0.2 ml/fraction. For competitive binding assays, fractions were assayed for radioactivity with ScintiVerse (Fisher Scientific, Fair Lawn, N.J.). […] For AhR and hsp90 density analysis, protein contained within an aliquot (200 of each fraction was separated by SDS-PAGE (7.5% acrylamide resolving gel) and transferred to PVDF membranes. Membranes were probed with antibodies recognizing AhR (Biomol) or hsp90 (Stressgen, Victoria, BC Canada). A crude estimate of the sedimentation coefficient for the EGCG shifted AhR complex was calculated by the method of Martin and Ames (Martin et al., J. Biol. Chem. 236:1372-1379 (1961), which is hereby incorporated by reference in its entirety) relative to the ^14C-BSA (4.4S) standard.

chicken hsp90 = chicken hsp90 (Gallus gallus, UniProt P11501); experiment: Trypsin treatment of in vitro translated hsp90; assay type: biochemical; design: made in house; host or cells: TNT rabbit reticulocyte lysate, 35S-labelled; settings: in absence of AhR or ARNT, trypsin 10 minutes at room temperature
Experimental: Chicken hsp90 was translated in vitro using the TNT RRL system as described supra in the presence of [^35S]Methionine, diluted, incubated with DMSO or EGCG, and treated with trypsin at indicated concentrations for 10 minutes at room temperature. All samples were separated by 10% SDS-PAGE, transferred to PVDF membrane, and visualized by phosphorImager. Results of the experiment are illustrated in FIG. 13. […] Therefore, the ability of EGCG to affect hsp90 conformation is not dependent on the presence of AhR or ARNT.

AhR = molecular target: T1, AhR (Mus musculus, UniProt P30561); experiment: DNA binding of in vitro translated AhR and ARNT in RRL; assay type: biochemical
T1 construct: made in house; host or cells: TNT rabbit reticulocyte lysate
T1 sequence (P30561 10-805 limits assumed): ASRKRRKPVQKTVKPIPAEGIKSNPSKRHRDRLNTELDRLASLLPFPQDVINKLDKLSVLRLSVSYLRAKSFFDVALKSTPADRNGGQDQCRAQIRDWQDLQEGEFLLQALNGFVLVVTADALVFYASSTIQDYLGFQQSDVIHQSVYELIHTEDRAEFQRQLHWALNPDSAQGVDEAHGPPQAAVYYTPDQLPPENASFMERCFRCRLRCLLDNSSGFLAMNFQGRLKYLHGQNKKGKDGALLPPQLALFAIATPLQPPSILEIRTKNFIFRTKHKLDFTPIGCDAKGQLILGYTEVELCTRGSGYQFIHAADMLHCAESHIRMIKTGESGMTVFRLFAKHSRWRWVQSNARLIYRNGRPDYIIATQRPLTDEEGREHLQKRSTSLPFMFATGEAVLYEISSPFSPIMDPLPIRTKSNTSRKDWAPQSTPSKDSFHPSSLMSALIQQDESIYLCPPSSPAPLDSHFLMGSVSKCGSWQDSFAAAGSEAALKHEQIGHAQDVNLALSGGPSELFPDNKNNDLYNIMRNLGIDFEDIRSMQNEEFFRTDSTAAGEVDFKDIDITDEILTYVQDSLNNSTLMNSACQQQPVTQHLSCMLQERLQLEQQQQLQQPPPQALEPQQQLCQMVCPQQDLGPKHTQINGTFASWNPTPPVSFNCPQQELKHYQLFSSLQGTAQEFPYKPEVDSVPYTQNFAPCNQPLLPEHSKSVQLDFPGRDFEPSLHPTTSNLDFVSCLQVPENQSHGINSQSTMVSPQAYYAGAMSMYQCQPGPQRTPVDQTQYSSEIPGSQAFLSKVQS
Source text: The data provided above implicate a model where EGCG inhibits release of hsp90 from the AhR complex. This form of hsp90 appears to maintain its interaction with XAP2 (FIG. 4). However, from the above data, it remains to be determined whether 1) the hsp90-XAP2 complex remains bound to the AhR upon EGCG treatment, 2) EGCG prevents ARNT dimerization, 3) EGCG stabilizes the receptor in a different complex upon additional treatment with TCDD, and 4) if other proteins are present in this complex. Findings from the above investigations add some useful insight into the mechanism of action of EGCG. The mouse AhR used for these studies was in vitro transcribed in rabbit reticulocyte lysate (RRL) and immunoprecipitated using an antibody specific for amino acids 12-31. Although this antibody could precipitate the latent and TCDD-activated AhR complex from RRL, it was incapable of precipitating an EGCG-treated AhR. […] Furthermore, titration of Hepa cytosol into the RRL system restored the ability to immunoprecipitate ^35S-methionine-labeled in vitro transcribed AhR. Similar discrepancies between systems were observed utilizing DNA binding as an endpoint. […] This is in direct contrast to the lack of AhR transformation by EGCG observed in Hepa cytosol (FIG. 7). […] This EGCG-induced DNA binding complex could also be attenuated upon titration of Hepa cytosol into RRL. […]

## O=C(O[C@@H]1Cc2c(O)cc(O)cc2O[C@@H]1c1cc(O)c(O)c(O)c1)c1cc(O)c(O)c(O)c1 [EGCG, epigallocatechin gallate]
Mouse AhR; ARNT deficient BPrC1 cytosol, lower concentrations of 3H-TCDD
  displacement of TCDD from the AhR ligand-binding site: incapable of displacing TCDD
Mouse AhR; BPrC1 cytosol pretreated 30 minutes with EGCG
  inhibition of TCDD binding after pretreatment: failed to inhibit TCDD binding
Mouse AhR; Hepa cytosol, 3 nM 3H-TCDD, 2 h, room temperature
  competition with 3H-TCDD for specific binding to the AhR (9S peak): failed to attenuate the ^3H-TCDD 9S signal
Mouse AhR; Hepa cytosol, 5 nM 3H-BNF, 2 h, room temperature
  competition with 3H-BNF for binding to the AhR: failed to inhibit BNF binding
Chicken hsp90
  effect on hsp90 conformation (trypsin treatment): altered conformation of hsp90
AhR
  DNA binding of AhR and ARNT, treatment alone: formation of a strong DRE-AhR-ARNT shifted complex
